≈ marks a conversion by molar mass, not a printed value. Read-outs that look alike come from different tables or passages of the source. Peptide text beside a SMILES is read from it.
What was measured:
[1] = system: Fusarium graminearum
[2] = system: Botrytis cinerea; assay: Antifungal 96-well plate assay with resazurin cell viability readout; format: cell-based; conditions: chemically synthesized peptides; 2-fold dilution series; 48 h incubation, then resazurin overnight; lowest concentration with no change in blue color
Experimental: Antifungal activity of NCR13_AlaV1-V5 was assessed at different concentrations using a 2-fold dilution series of each peptide. Antifungal activity of each peptide was determined spectrophotometrically using the 96-well plate assay. Around 45 μL of each peptide at different concentrations was added to each well of the microtiter plate containing 45 μL of ˜[…] spore suspension. The quantitative fungal growth inhibition was determined by measuring the absorbance at 595 nm using a (Tecan Infinite M200 ProTecan Systems Inc., San Jose, CA) microplate reader after 48 h. The fungal cell viability was determined by the resazurin cell viability assay. After incubation of the pathogen/peptide mixture for 48 h, 10 μl of 0.1% resazurin solution was added to each well. After incubation of the mixture overnight, a change in the color of the resazurin dye from blue to pink or colorless indicated the presence of live fungal cells. The MIC for each peptide was the lowest concentration of each peptide at which no change in blue color occurred.

[3] = system: Candida albicans (33795); assay: In vitro antifungal activity (spectrophotometric) against human fungal pathogens; conditions: Pichia pastoris-expressed peptide, half-strength potato dextrose broth
Experimental: (§1) The in vitro antifungal activity of these peptides was determined spectrophotometrically as described in previous publications (Sagaram et al. 2013: Islam et al. 2017) in half-strength potato dextrose broth.

[4] = system: Candida auris (38883); assay: as above; conditions: Pichia pastoris-expressed peptide, half-strength potato dextrose broth
Experimental: as §1

[5] = system: Candida glabrata (38827); assay: as above; conditions: Pichia pastoris-expressed peptide, half-strength potato dextrose broth
Experimental: as §1

[6] = system: Tricophyton rubrum (36381); assay: as above; conditions: Pichia pastoris-expressed peptide, half-strength potato dextrose broth
Experimental: as §1

[7] = system: Tricophyton metagrophytes (26103); assay: as above; conditions: Pichia pastoris-expressed peptide, half-strength potato dextrose broth
Experimental: as §1

CC[C@H](C)[C@H](NC(=O)[C@H](CS)NC(=O)[C@H](CCCCN)NC(=O)[C@@H]1CCCN1C(=O)[C@@H](NC(=O)[C@H](CCCCN)NC(=O)[C@@H]1CCCN1C(=O)[C@H](CCCCN)NC(=O)[C@H](CCCNC(=N)N)NC(=O)[C@H](CS)NC(=O)[C@H](C)NC(=O)[C@H](Cc1ccccc1)NC(=O)[C@H](CCCCN)NC(=O)[C@H](CCCCN)NC(=O)[C@H](CS)NC(=O)[C@H](CC(=O)O)NC(=O)[C@H](CCCCN)NC(=O)[C@H](CC(=O)O)NC(=O)[C@H](CO)NC(=O)[C@H](CCC(N)=O)NC(=O)[C@H](CS)NC(=O)[C@@H]1CCCN1C(=O)[C@H](CCCCN)NC(=O)[C@@H](N)[C@@H](C)O)C(C)C)C(=O)N[C@@H](CC(N)=O)C(=O)NCC(=O)N[C@@H](Cc1ccccc1)C(=O)N[C@@H](CS)C(=O)N[C@@H](CCCCN)C(=O)N[C@@H](CS)C(=O)N[C@H](C(=O)N[C@@H](CCCNC(=N)N)C(=O)O)C(C)C [NCR13, reference compound] (H-TKPCQSDKDCKKFACRKPKVPKCINGFCKCVR-OH; N-terminus and C-terminus assumed)
MIC (μM) Fusarium graminearum ([1]; 48 h): 6 µM (≈ 22 µg/mL)

CC[C@H](C)[C@H](NC(=O)[C@H](CS)NC(=O)[C@H](CCCCN)NC(=O)[C@@H]1CCCN1C(=O)[C@@H](NC(=O)[C@H](CCCCN)NC(=O)[C@@H]1CCCN1C(=O)[C@H](CCCCN)NC(=O)[C@H](CCCNC(=N)N)NC(=O)[C@H](CS)NC(=O)[C@H](C)NC(=O)[C@H](Cc1ccccc1)NC(=O)[C@H](CCCCN)NC(=O)[C@H](CCCCN)NC(=O)[C@H](CS)NC(=O)[C@H](C)NC(=O)[C@H](C)NC(=O)[C@H](C)NC(=O)[C@H](C)NC(=O)[C@H](C)NC(=O)[C@H](CS)NC(=O)[C@@H]1CCCN1C(=O)[C@H](CCCCN)NC(=O)[C@@H](N)[C@@H](C)O)C(C)C)C(=O)N[C@@H](CC(N)=O)C(=O)NCC(=O)N[C@@H](Cc1ccccc1)C(=O)N[C@@H](CS)C(=O)N[C@@H](CCCCN)C(=O)N[C@@H](CS)C(=O)N[C@H](C(=O)N[C@@H](CCCNC(=N)N)C(=O)O)C(C)C [NCR13_AlaV1] (H-TKPCAAAAACKKFACRKPKVPKCINGFCKCVR-OH; N-terminus and C-terminus assumed)
MIC (μM) Fusarium graminearum ([1]; 48 h): 6 µM (≈ 20.7 µg/mL)

CC[C@H](C)[C@H](NC(=O)[C@H](CS)NC(=O)[C@H](C)NC(=O)[C@H](C)NC(=O)[C@H](C)NC(=O)[C@H](CCCCN)NC(=O)[C@@H]1CCCN1C(=O)[C@H](CCCCN)NC(=O)[C@H](CCCNC(=N)N)NC(=O)[C@H](CS)NC(=O)[C@H](C)NC(=O)[C@H](Cc1ccccc1)NC(=O)[C@H](CCCCN)NC(=O)[C@H](CCCCN)NC(=O)[C@H](CS)NC(=O)[C@H](CC(=O)O)NC(=O)[C@H](CCCCN)NC(=O)[C@H](CC(=O)O)NC(=O)[C@H](CO)NC(=O)[C@H](CCC(N)=O)NC(=O)[C@H](CS)NC(=O)[C@@H]1CCCN1C(=O)[C@H](CCCCN)NC(=O)[C@@H](N)[C@@H](C)O)C(=O)N[C@@H](CC(N)=O)C(=O)NCC(=O)N[C@@H](Cc1ccccc1)C(=O)N[C@@H](CS)C(=O)N[C@@H](CCCCN)C(=O)N[C@@H](CS)C(=O)N[C@H](C(=O)N[C@@H](CCCNC(=N)N)C(=O)O)C(C)C [NCR13_AlaV4] (H-TKPCQSDKDCKKFACRKPKAAACINGFCKCVR-OH; N-terminus and C-terminus assumed)
MIC (μM) Botrytis cinerea [2]: Inactive | MIC (μM) Fusarium graminearum ([1]; 48 h): 12 µM (≈ 42.6 µg/mL)

CC(C)[C@H](NC(=O)[C@H](CS)NC(=O)[C@H](CCCCN)NC(=O)[C@H](CS)NC(=O)[C@H](C)NC(=O)[C@H](C)NC(=O)[C@H](C)NC(=O)[C@H](C)NC(=O)[C@H](CS)NC(=O)[C@H](CCCCN)NC(=O)[C@@H]1CCCN1C(=O)[C@@H](NC(=O)[C@H](CCCCN)NC(=O)[C@@H]1CCCN1C(=O)[C@H](CCCCN)NC(=O)[C@H](CCCNC(=N)N)NC(=O)[C@H](CS)NC(=O)[C@H](C)NC(=O)[C@H](Cc1ccccc1)NC(=O)[C@H](CCCCN)NC(=O)[C@H](CCCCN)NC(=O)[C@H](CS)NC(=O)[C@H](CC(=O)O)NC(=O)[C@H](CCCCN)NC(=O)[C@H](CC(=O)O)NC(=O)[C@H](CO)NC(=O)[C@H](CCC(N)=O)NC(=O)[C@H](CS)NC(=O)[C@@H]1CCCN1C(=O)[C@H](CCCCN)NC(=O)[C@@H](N)[C@@H](C)O)C(C)C)C(=O)N[C@@H](CCCNC(=N)N)C(=O)O [NCR13_AlaV5] (H-TKPCQSDKDCKKFACRKPKVPKCAAAACKCVR-OH; N-terminus and C-terminus assumed)
MIC (μM) Fusarium graminearum ([1]; 48 h): 6 µM (≈ 21.1 µg/mL)

CaNCR13: Wild-type nodule specific cysteine rich peptide from chickpea, SEQ ID NO: 1, expressed in Pichia pastoris and purified by FPLC and HPLC (TKPCQSDKDCKKFACRKPKVPKCINGFCKCVR; listed as Cicer arietinum)
MIC [3]: 3.2 µM | MIC [4]: 6.4 µM | MIC [5]: 0.41 µM | MIC [6]: 3.2 µM | MIC [7]: 0.41 µM

TKPCQSDKDCAAAACRKPKVPKCINGFCKCVR (SEQ ID NO: 42) [NCR13_AlaV2]
MIC (μM) Botrytis cinerea [2]: Inactive | MIC (μM) Fusarium graminearum [1]: Inactive

TKPCQSDKDCKKFACAAAAVPKCINGFCKCVR (SEQ ID NO: 43) [NCR13_AlaV3]
MIC (μM) Botrytis cinerea [2]: Inactive | MIC (μM) Fusarium graminearum [1]: Inactive

Source: patent publication US20250176546A1, “ANTIMICROBIAL CaNCR PEPTIDE VARIANTS” (Donald Danforth Plant Science Center, priority 2022, published 2025)
